Patent US9198894B2, “Uses of 15-benzylidene-14-deoxy-11,12-didehydroandrographolide derivatives in the preparation of antineoplastic drugs” (Zhengzhou University, priority 2010, dated 2015)
Marks after values point to notes of the source that are not given here.

How the values were obtained:
S180 murine sarcoma = test: Growth, invasion and metastasis of S180 sarcoma in tumor-bearing mice; format: in vivo, mouse; settings: for Average invasion and metastasis grade: S180, grades 0-4; for Mouse Number Grade 0 / Mouse Number Grade 1 / Mouse Number Grade 2 / Mouse Number Grade 3 / Mouse Number Grade 4: S180 invasion; for Mouse Number Grade 0: Grade 0: no invasion; for Mouse Number Grade 1: Grade 1: invasion to right forelimb; for Mouse Number Grade 2: Grade 2: right forelimb and the left side of body; for Mouse Number Grade 3: Grade 3: also the ribs and muscles in chest; for Mouse Number Grade 4: Grade 4: invasion into chest or abdominal cavity; for In vivo antitumor effect on S180 compared with parent compound (in words) / Inhibitory effect on invasion and metastasis of S180 tumor tissues (in words): ig, tested doses
Experimental: (§1) 1) Animals: Be the same with that of EXAMPLE 4.
2) Cells: The S180 murine sarcoma cells were obtained from Henan Academy of Medical and Pharmaceutical Sciences (Zhengzhou, China).
4) Method: Mice were randomly divided into 10 groups (n=12). The S180 cells after in vivo passage for 7 d were diluted with physiological saline to adjust to a concentration of 1×10^7/mL. The inoculation of tumor cells was conducted in two batches, those of tumor control group I and groups treated with compounds 1 or 3 were in batch 1, those of tumor control group II, Cyc group and the compound 2 groups were in batch 2. The mice were injected with S180 cells (0.2 ml/mouse) into the armpit of right forelimb subcutaneously, and 24 h later each group of mice was administrated intragastrically (ig; 0.2 ml/10 g) once a day continuously for 9 d with vehicle (tumor control group), Cyc (standard control), or compounds at the tested doses. On day 10, kill the mice, observe and record the degree of invasion and metastasis of tumor tissues, then the tumor tissues were segregated and weighed. The inhibition ratio (IR) of tumor growth was calculated by the following formula: IR (%)=[(Wc−Wt)/Wc]×100%, where Wc is the average tumor weight of the control group, and Wt is that of the treatment group. Data were expressed as mean±SD and statistical analysis was performed by SPSS Statistics 17.0 using a one-way analysis of variance (ANOVA) followed by unpaired t-test. A value of P<0.05 was considered statistically significant.

mice = test: Acute oral toxicity test, maximum limit method; format: in vivo; settings: single dose 5.00 g/kg intragastric, 14 d observation; for Deaths: 10 animals
Experimental: as §1
3) Method: 20 mice weighing 20±2 g, half male and half female, were divided into 2 groups (n=10) randomly. Animals were administrated with compound 2 or compound 3 at a dose of 5.00 g/kg by intragastric administration after 12 h of fasting (drinking freely). Weigh the mice, observe and record the performance of animals once a day continuously for 14 d.

Murine hepatoma H22 = test: Anti-tumor and anti-angiogenesis effects on H22 tumor-bearing mice; format: in vivo, mouse; settings: for IR (%) of tumor growth / Carmine contents / VI (vascular index, mg carmine red per g tumor tissue): H22 mice; for Carmine contents / VI (vascular index, mg carmine red per g tumor tissue): mean ± s; for Inhibition against angiogenesis in H22 tumor (in words) / Inhibition against the growth of mouse hepatoma H22 (in words): ig, tested doses 0.65-1.35 mmol/kg
Description: 1) Animals: Kunming mice of clean grade, half male and half female, body weight 20±2 g, were purchased from the experimental animal center of Henan Province, China. Qualified Certificate number: SCXK (Yu) 2005-0001.
2) Cells: Murine hepatoma H22 cells were presently obtained from Henan Academy of Medical and Pharmaceutical Sciences (Zhengzhou, China).
Cyclophosphamide (Cyc) was produced by Tianjin Jingshi Pharmaceutical Co., Ltd., China (approval number of medicine: H12021006). Gelatin and carmine red were supplied by Sigma Chemical (St. Louis, Mo., U.S.A). All other chemicals and reagents were of the highest commercial grade available. All drugs were prepared with normal saline emulsified with Tween-80 (0.1% v/v) and dispersed in carboxymethylcellulose (0.5% v/v). 10% (W/V) carmine solution was prepared with salt solution containing 5% (W/V) gelatin which should be used immediately after preparation. The rest of medicines and reagents and the methods for preparation were the same with that of EXAMPLE 1.
4) Method: The H22 cells after in vivo passage for 7 d were diluted with physiological saline to adjust to a concentration of 1×10^7/mL, injected to the armpit of right forelimb of mice subcutaneously (0.2 ml/mouse), then mice were divided into 10 groups (n=12; 6 male and 6 female per group) randomly. 24 h later each group of mice was administrated intragastrically (ig; 0.2 ml/10 g) once a day continuously for 7 d with vehicle (tumor control group and control group), Cyc (standard control), or compounds at the tested doses. After the last drug administration and a following fasting of 8 h, each mouse was anesthetized with 1% pentobarbital in normal saline solution (80 mg/kg; ip). Mice of control group were injected with 5% gelatin in normal saline solution (40) via the tail vein (1 ml/mouse); whereas mice of other groups were injected replaced by 10% carmine red and 5% gelatin in normal saline solution (40). Mice were killed, then freezed in a refrigerator at −20 for 2 h to solidify. Tumors were segregated, weighed and homogenized with 3 M NaOH solution (10 ml/g tumor). The homogenate supernatant was prepared by being centrifuged for 20 min at 14000 rpm, and the absorbance at 490 nm was assayed using a PowerWaveX Microplate Scanning Spectrophotometer (Bio-tek Instruments, Inc). The carmine red content was calculated based on the standard curve. The vascular index (VI) expressed as milligram of carmine red per gram of tumor tissue. The inhibition ratio (IR) of tumor growth was calculated using the formula: IR (%)=[(Wc−Wt)/Wc]×100%, where Wc is the average tumor weight of the control group, and Wt is that of the drug treatment group. Data were expressed as mean±SD and statistical analysis was performed by SPSS Statistics 17.0 using a one-way analysis of variance (ANOVA) followed by unpaired t-test. A value of P<0.05 was considered statistically significant.

[1] = 1.10 mmol/kg (1.10 mmol/g [sic])

C=C1CCC2C(C)(COC(=O)c3cccnc3)C(OC(=O)c3cccnc3)CCC2(C)C1C=CC1=CC(=Cc2ccc(Cl)cc2)OC1=O (centres unmarked) [Compound 3, 15-p-chlorobenzylidene-14-deoxy-11,12-didehydro-3,19-dinicotinate andrographolide]
IR (%) of S180 sarcoma growth (S180 murine sarcoma; 0.60 mmol/kg ig once a day 9 d): 18.89 ± 3.68 %
IR (%) of S180 sarcoma growth (S180 murine sarcoma; 0.85 mmol/kg ig once a day 9 d): 20.21 ± 4.37 %
IR (%) of S180 sarcoma growth (S180 murine sarcoma; 1.10 mmol/kg ig once a day 9 d): 24.44 ± 6.30 %
IR (%) of S180 sarcoma growth (S180 murine sarcoma; 1.35 mmol/kg ig once a day 9 d): 31.21 ± 5.96**^Δ %
Average invasion and metastasis grade (S180 murine sarcoma; 0.60 mmol/kg): 1.08
Average invasion and metastasis grade (S180 murine sarcoma; 0.85 mmol/kg): 1.25
Average invasion and metastasis grade (S180 murine sarcoma; [1]): 0.42
Mouse Number Grade 0 (S180 murine sarcoma; 0.60 mmol/kg): 4
Mouse Number Grade 0 (S180 murine sarcoma; 0.85 mmol/kg): 5
Mouse Number Grade 0 (S180 murine sarcoma; [1]): 8
Mouse Number Grade 1 (S180 murine sarcoma; 0.60 mmol/kg): 5
Mouse Number Grade 1 (S180 murine sarcoma; 0.85 mmol/kg): 2
Mouse Number Grade 1 (S180 murine sarcoma; [1]): 3
Mouse Number Grade 2 (S180 murine sarcoma; 0.60 mmol/kg): 1
Mouse Number Grade 2 (S180 murine sarcoma; 0.85 mmol/kg): 2
Mouse Number Grade 2 (S180 murine sarcoma; [1]): 1
Mouse Number Grade 3 (S180 murine sarcoma; 0.60 mmol/kg): 2
Mouse Number Grade 3 (S180 murine sarcoma; 0.85 mmol/kg): 3
Mouse Number Grade 3 (S180 murine sarcoma; [1]): 0
Mouse Number Grade 4 (S180 murine sarcoma; 0.60 mmol/kg): 0
Mouse Number Grade 4 (S180 murine sarcoma; 0.85 mmol/kg): 0
Mouse Number Grade 4 (S180 murine sarcoma; [1]): 0
In vivo antitumor effect on S180 compared with parent compound (in words) (S180 murine sarcoma): significantly stronger than that of the parent compound
Inhibitory effect on invasion and metastasis of S180 tumor tissues (in words) (S180 murine sarcoma): strong inhibitory effect
Mortality(%) (mice): 0%
Toxic symptoms observed (mice): No apparent toxic symptoms
Deaths (mice): 0
IR (%) of tumor growth (Murine hepatoma H22; 0.65 mmol/kg ig once a day 7 d): 37.89* %
Carmine contents (Murine hepatoma H22; 0.65 mmol/kg ig once a day 7 d): 2.26 ± 1.97*^Δ
VI (vascular index, mg carmine red per g tumor tissue) (Murine hepatoma H22; 0.65 mmol/kg ig once a day 7 d): 3.60 ± 1.86*^Δ mg/g
IR (%) of tumor growth (Murine hepatoma H22; 1.00 mmol/kg ig once a day 7 d): 41.26*^ΔΔ %
Carmine contents (Murine hepatoma H22; 1.00 mmol/kg ig once a day 7 d): 1.88 ± 1.26**^ΔΔ
VI (vascular index, mg carmine red per g tumor tissue) (Murine hepatoma H22; 1.00 mmol/kg ig once a day 7 d): 3.30 ± 1.43*^Δ mg/g
IR (%) of tumor growth (Murine hepatoma H22; 1.35 mmol/kg ig once a day 7 d): 49.27**^ΔΔ %
Carmine contents (Murine hepatoma H22; 1.35 mmol/kg ig once a day 7 d): 2.14 ± 1.42*^Δ
VI (vascular index, mg carmine red per g tumor tissue) (Murine hepatoma H22; 1.35 mmol/kg ig once a day 7 d): 3.88 ± 1.40 mg/g
Inhibition against angiogenesis in H22 tumor (in words) (Murine hepatoma H22): significant inhibition
Inhibition against the growth of mouse hepatoma H22 (in words) (Murine hepatoma H22): significant inhibition

C=C1CCC2C(C)(CO)C(O)CCC2(C)C1C=CC1=CC(=Cc2ccc(Cl)cc2)OC1=O (centres unmarked) [Compound 2, 15-p-chlorobenzylidene-14-deoxy-11,12-didehydro-andrographolide]
IR (%) of S180 sarcoma growth (S180 murine sarcoma; 0.60 mmol/kg ig once a day 9 d): 30.12 ± 8.00 %
IR (%) of S180 sarcoma growth (S180 murine sarcoma; 0.85 mmol/kg ig once a day 9 d): 53.38 ± 6.83**^ΔΔ %
IR (%) of S180 sarcoma growth (S180 murine sarcoma; 1.10 mmol/kg ig once a day 9 d): 45.16 ± 5.58**^ΔΔ %
Average invasion and metastasis grade (S180 murine sarcoma; 0.60 mmol/kg): 2.00
Average invasion and metastasis grade (S180 murine sarcoma; 0.85 mmol/kg): 0.00
Average invasion and metastasis grade (S180 murine sarcoma; [1]): 0.00
Mouse Number Grade 0 (S180 murine sarcoma; 0.60 mmol/kg): 0
Mouse Number Grade 0 (S180 murine sarcoma; 0.85 mmol/kg): 12
Mouse Number Grade 0 (S180 murine sarcoma; [1]): 12
Mouse Number Grade 1 (S180 murine sarcoma; 0.60 mmol/kg): 0
Mouse Number Grade 1 (S180 murine sarcoma; 0.85 mmol/kg): 0
Mouse Number Grade 1 (S180 murine sarcoma; [1]): 0
Mouse Number Grade 2 (S180 murine sarcoma; 0.60 mmol/kg): 12
Mouse Number Grade 2 (S180 murine sarcoma; 0.85 mmol/kg): 0
Mouse Number Grade 2 (S180 murine sarcoma; [1]): 0
Mouse Number Grade 3 (S180 murine sarcoma; 0.60 mmol/kg): 0
Mouse Number Grade 3 (S180 murine sarcoma; 0.85 mmol/kg): 0
Mouse Number Grade 3 (S180 murine sarcoma; [1]): 0
Mouse Number Grade 4 (S180 murine sarcoma; 0.60 mmol/kg): 0
Mouse Number Grade 4 (S180 murine sarcoma; 0.85 mmol/kg): 0
Mouse Number Grade 4 (S180 murine sarcoma; [1]): 0
In vivo antitumor effect on S180 compared with parent compound (in words) (S180 murine sarcoma): significantly stronger than that of the parent compound
Inhibitory effect on invasion and metastasis of S180 tumor tissues (in words) (S180 murine sarcoma): strong inhibitory effect
Mortality(%) (mice): 0%
Deaths (mice): 0
IR (%) of tumor growth (Murine hepatoma H22; 0.65 mmol/kg ig once a day 7 d): 15.69%
Carmine contents (Murine hepatoma H22; 0.65 mmol/kg ig once a day 7 d): 4.63 ± 2.93
VI (vascular index, mg carmine red per g tumor tissue) (Murine hepatoma H22; 0.65 mmol/kg ig once a day 7 d): 4.42 ± 1.58 mg/g
IR (%) of tumor growth (Murine hepatoma H22; 1.00 mmol/kg ig once a day 7 d): 49.63**^ΔΔ %
Carmine contents (Murine hepatoma H22; 1.00 mmol/kg ig once a day 7 d): 2.59 ± 1.68*^Δ
VI (vascular index, mg carmine red per g tumor tissue) (Murine hepatoma H22; 1.00 mmol/kg ig once a day 7 d): 3.89 ± 0.89 mg/g
IR (%) of tumor growth (Murine hepatoma H22; 1.35 mmol/kg ig once a day 7 d): 50.37**^ΔΔ %
Carmine contents (Murine hepatoma H22; 1.35 mmol/kg ig once a day 7 d): 1.90 ± 1.39**^ΔΔ
VI (vascular index, mg carmine red per g tumor tissue) (Murine hepatoma H22; 1.35 mmol/kg ig once a day 7 d): 3.14 ± 1.69*^Δ mg/g
Inhibition against angiogenesis in H22 tumor (in words) (Murine hepatoma H22): significant inhibition
Inhibition against the growth of mouse hepatoma H22 (in words) (Murine hepatoma H22): significant inhibition
